Reference: patent US20120110703A1, “PROTEIN HAVING NOVEL PRENYLT[…] AND GENE ENCODING THE SAME” (KIRIN HOLDINGS KABUSHIKI KAISHA, priority 2009, published 2012)

Experiments:
H1PT1 prenyltransferase = target: T1, H1PT1 prenyltransferase (Humulus lupulus, UniProt A0A0B4ZTQ2); experiment: Prenyltransferase activity of recombinant H1PT1 (yeast microsome fraction), LC-MS analysis of products; type: biochemical; settings: for activity of transferring a prenyl group to substrate (substrate specificity): geranyl diphosphate as prenyl group donor, LCMS-IT-TOF, FIGS. 6 and 7
T1 construct: made in house; host or cells: Saccharomyces cerevisiae W303-1A-Δcoq2 (microsome fraction)
T1 sequence (A0A0B4ZTQ2 47-408): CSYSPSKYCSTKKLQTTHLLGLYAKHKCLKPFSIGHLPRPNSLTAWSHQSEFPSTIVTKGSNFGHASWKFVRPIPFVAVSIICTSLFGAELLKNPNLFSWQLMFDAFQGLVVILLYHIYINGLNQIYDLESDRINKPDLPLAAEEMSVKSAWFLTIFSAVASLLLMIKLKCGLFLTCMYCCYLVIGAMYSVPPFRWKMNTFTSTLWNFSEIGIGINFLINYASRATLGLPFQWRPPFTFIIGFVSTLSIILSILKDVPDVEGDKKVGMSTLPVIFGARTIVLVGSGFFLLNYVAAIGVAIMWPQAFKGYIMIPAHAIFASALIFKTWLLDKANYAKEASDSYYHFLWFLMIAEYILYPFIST
Method: (§1) The enzyme of the present invention (340 μg to 730 μg), a substrate aromatic compound (1 mM) such as flavonoid, a prenyl group donor (1 mM), and MgCl2 (20 mM) are mixed in a 100 mM Tris-HCl buffer (pH 7.5) to bring the amount of the resultant to 200 μl, and the reaction is allowed to proceed at 30° C. overnight. After the completion of the reaction, the product is extracted with ethyl acetate, dried, and dissolved in MeOH. The resultant may be analyzed using a mass spectrometer or via chromatography.
Cloned plasmids (pDR196-H1PT1 and pDR196-H1PT2) comprising each full-length sequence of the two gene clusters (H1PT1 and H1PT2) were introduced into the yeast strain (W303-1A-Δcoq2) by the lithium acetate method. Culture was conducted in 180 ml of SD-Ura liquid medium up to the logarithmic growth phase to express recombinant proteins in yeast transformants, and microsome fractions were prepared therefrom using the method of Yazaki et al. (JBC, 2002, 277, 6240-6246). The total amount of the reaction solution was adjusted to 200 μl by mixing 340 μg to 730 μg of proteins from the microsome fractions, flavonoid (1 mM), a prenyl group donor (1 mM), 20 mM MgCl2, and 100 mM Tris-HCl buffer (pH 7.5), and the reaction was allowed to proceed at 30° C. overnight. After the completion of the reaction, the product was extracted with ethyl acetate, dried, and dissolved in methanol (MeOH). The resultant was analyzed using Shimadzu LCMS-2010A and LCMS-IT-TOF (Shimadzu Corporation), TSK-GEL ODS-80Ts 2.0 mm×25 cm (TOSOH), and a solvent system (0.3% formic acid:acetonitrile=3:7) at a flow rate of 0.2 ml/min−1. […] These compounds had not been prepared via the heterologous expression system with the use of a plant-derived gene in the past. 6-Geranylnaringenin (peak c in FIG. 4) was compared with a standard sample (provided by Associate professor Tomohisa Kuzuyama, the University of Tokyo), and the same retention time and identical fragments were observed (FIG. 5). Thus, novel prenyltransferase (i.e., H1PT1 full-length: 1,224 bp, ORF: […].; H1PT2 full-length: 1,233 bp, ORF: 411 a.a.) was obtained. The amino acid sequences of proteins encoded by H1PT1 and H1PT2 are shown in SEQ ID NOs: 1 and 2, respectively. The nucleotide sequences of H1PT1 and H1PT2 are shown in SEQ ID NOs: 3 and 4, respectively. […] Thus, H1PT1 was mainly subjected to analysis as described below; however, it was also possible to analyze H1PT2 in the same manner.
The Sophora flavescens gene (JP Patent Publication (Kokai) No. 2008-220304 A) and the soybean gene (Akashi et al., Plant Physiology 149: 683-693, 2009), which are already known, are known to encode enzymes that interact with limited substrates with very high specificity. The enzymatic properties of recombinant H1PT1 were analyzed using LCMS-IT-TOF. Geranyl diphosphate was used as a prenyl group donor for prenylation of various flavonoid-associated compounds (e.g., isoliquiritigenin, sakuranetin, taxifolin, or genistein).

H1PT2 prenyltransferase = target: T2, H1PT2 prenyltransferase (Humulus lupulus, UniProt E5RP65); experiment: Prenyltransferase activity of recombinant H1PT2 (yeast microsome fraction), LC-MS analysis of products; type: biochemical; settings: flavonoid 1 mM, geranyl diphosphate 1 mM as prenyl group donor, 20 mM MgCl2, pH 7.5, 30° C. overnight; FIG. 4
T2 construct: made in house; host or cells: Saccharomyces cerevisiae W303-1A-Δcoq2 (microsome fraction)
T2 sequence (E5RP65 92-411): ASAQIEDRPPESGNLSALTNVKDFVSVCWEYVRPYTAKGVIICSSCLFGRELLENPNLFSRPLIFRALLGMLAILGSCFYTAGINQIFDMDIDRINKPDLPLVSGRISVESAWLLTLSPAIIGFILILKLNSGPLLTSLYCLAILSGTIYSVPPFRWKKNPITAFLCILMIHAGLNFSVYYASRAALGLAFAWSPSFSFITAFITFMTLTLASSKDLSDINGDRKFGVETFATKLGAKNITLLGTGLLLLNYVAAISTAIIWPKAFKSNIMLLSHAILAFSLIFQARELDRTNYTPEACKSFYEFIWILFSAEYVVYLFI
Method: as §1
Cloned plasmids (pDR196-H1PT1 and pDR196-H1PT2) comprising each full-length sequence of the two gene clusters (H1PT1 and H1PT2) were introduced into the yeast strain (W303-1A-Δcoq2) by the lithium acetate method. Culture was conducted in 180 ml of SD-Ura liquid medium up to the logarithmic growth phase to express recombinant proteins in yeast transformants, and microsome fractions were prepared therefrom using the method of Yazaki et al. (JBC, 2002, 277, 6240-6246). […] The resultant was analyzed using Shimadzu LCMS-2010A and LCMS-IT-TOF (Shimadzu Corporation), TSK-GEL ODS-80Ts 2.0 mm×25 cm (TOSOH), and a solvent system (0.3% formic acid:acetonitrile=3:7) at a flow rate of 0.2 ml/min−1. […]

For O=c1c(-c2ccc(O)cc2)coc2cc(O)cc(O)c12 [genistein], the “activity of transferring a prenyl group to substrate (substrate specificity)” value (“activity of transferring a prenyl group” for short) (H1PT1 prenyltransferase) was “activity of transferring a prenyl group to all substrates was observed”.

For O=C(/C=C/c1ccc(O)cc1)c1ccc(O)cc1O [isoliquiritigenin], the “activity of transferring a prenyl group” value (H1PT1 prenyltransferase) was “activity of transferring a prenyl group to all substrates was observed”.

In the case of O=C1C[C@@H](c2ccc(O)cc2)Oc2cc(O)cc(O)c21 [naringenin], the “prenylated products from substrate” value (H1PT1 prenyltransferase; flavonoid 1 mM, geranyl diphosphate 1 mM as prenyl group donor, 20 mM MgCl2, pH 7.5, 30° C. overnight, FIG. 4) is reported as “a compound into which prenyl had been introduced at position 6 and a compound into which prenyl was deduced to have been introduced at position 8 or 3′ were detected” and the “prenylated products from substrate” value (H1PT2 prenyltransferase) is reported as “a compound into which prenyl had been introduced at position 6 and a compound into which prenyl was deduced to have been introduced at position 8 or 3′ were detected”.

For COc1cc(O)c2c(c1)O[C@H](c1ccc(O)cc1)CC2=O [sakuranetin], the “activity of transferring a prenyl group” value (H1PT1 prenyltransferase) was “activity of transferring a prenyl group to all substrates was observed”.

With O=C1c2c(O)cc(O)cc2O[C@H](c2ccc(O)c(O)c2)[C@H]1O [taxifolin] the “activity of transferring a prenyl group” value (H1PT1 prenyltransferase) was “activity of transferring a prenyl group to all substrates was observed”.
